Seven compounds from ChEMBL document CHEMBL3232804, “Synthesis and evaluation of new diaryl ether and quinoline hybrids as potential antiplasmodial and antimicrobial agents” (Bioorg Med Chem Lett, 2014) can be followed below.

In brackets after ≈: the same amount, converted by molar mass. Bounds are passed on as bounds.

One series relates to Klebsiella pneumoniae. The experiment in a line: Antimicrobial activity against Klebsiella pneumoniae ATCC 27736 after 24 hrs by standard broth microdilution method. The class given is functional. To be noted: ATCC 27736, 24 h. (In broth dilution the organism is exposed to a series of concentrations in liquid medium.)
In series [1] the test system is Plasmodium falciparum. The experiment in a line: Antiplasmodial activity against chloroquine-sensitive Plasmodium falciparum 3D7 infected after 72 hrs by Malaria SYBR Green I-staining based fluorescence assay. The format is functional, organism-based. The conditions noted are these: 3D7, 72 h.
Series [2] relates to Plasmodium falciparum. The series is described as follows: Antiplasmodial activity against chloroquine-resistant Plasmodium falciparum K1 infected after 72 hrs by Malaria SYBR Green I-staining based fluorescence assay. The class given is functional, organism-based. To be noted: K1, 72 h.
A further series has as its system Sporothrix schenckii. The experiment in a line: Antifungal activity against Sporothrix schenckii clinical isolate after 72 to 96 hrs by standard broth microdilution method. The format is functional.
In a further series the test system is Escherichia coli. The series is described as follows: Antimicrobial activity against Escherichia coli ATCC 9637 after 24 hrs by standard broth microdilution method. The format is functional. To be noted: ATCC 9637, 24 h.
A short description of series [3]: Selectivity index, ratio of IC50 for african green monkey Vero cells to IC50 for chloroquine-sensitive Plasmodium falciparum 3D7. The conditions noted are these: read-out: Ratio IC50. The class given is toxicity, cell-based.
Another series deals with Candida albicans. The experiment in a line: Antifungal activity against Candida albicans clinical isolate after 24 to 48 hrs by standard broth microdilution method. The format is functional.
The next series deals with Candida parapsilosis. The series is described as follows: Antifungal activity against Candida parapsilosis ATCC […] after 72 to 96 hrs by standard broth microdilution method. The class given is functional. The conditions noted are these: Lodderomyces parapsilosis.
A further series has as its system Cryptococcus neoformans. The series is described as follows: Antifungal activity against Cryptococcus neoformans clinical isolate after 24 to 48 hrs by standard broth microdilution method. The format is functional.
A further series relates to Staphylococcus aureus. The series is described as follows: Antimicrobial activity against Staphylococcus aureus ATCC 25923 after 24 hrs by standard broth microdilution method. The format is functional. To be noted: ATCC 25923, 24 h.
The test system of a further series is Pseudomonas aeruginosa. The series is described as follows: Antimicrobial activity against Pseudomonas aeruginosa ATCC BAA-427 after 24 hrs by standard broth microdilution method. The conditions noted are these: ATCC BAA-427, 24 h. The format is functional.
Series [4] relates to Trichophyton mentagrophytes. The series is described as follows: Antifungal activity against Trichophyton mentagrophytes clinical isolate after 72 to 96 hrs by standard broth microdilution method. The format is functional.
In a further series the test system is Aspergillus fumigatus. The series is described as follows: Antifungal activity against Aspergillus fumigatus clinical isolate after 72 to 96 hrs by standard broth microdilution method. The format is functional.

For orientation: MIC means the smallest concentration in the dilution series that meets the test's criterion for growth inhibition. What is called IC50 is the concentration that inhibits the measured activity by half.

Regarding `COc1ccc(Oc2ccc(N/C(=N/c3ccccc3)NCCCCNc3ccnc4cc(Cl)ccc34)cc2)cc1`, the MIC against Klebsiella pneumoniae is 25 µg/mL (≈ 44.2 µM); against Sporothrix schenckii it was 12.5 µg/mL (≈ 22.1 µM); in the series on Escherichia coli, 50 µg/mL (≈ 88.3 µM); in the series with Candida albicans, 12.5 µg/mL (≈ 22.1 µM); against Candida parapsilosis, 12.5 µg/mL (≈ 22.1 µM); against Cryptococcus neoformans, 25 µg/mL (≈ 44.2 µM). Further, the MIC against Staphylococcus aureus is 6.25 µg/mL (≈ 11 µM); against Pseudomonas aeruginosa it was greater than 50 µg/mL; in series [4], 12.5 µg/mL (≈ 22.1 µM); with Aspergillus fumigatus, 25 µg/mL (≈ 44.2 µM). In addition, the IC50 with Plasmodium falciparum [1] stood at 86 nM; in the series with Plasmodium falciparum [2], 92.1 nM. In [3], the selectivity ratio is 49.

On to `COc1ccc(Oc2ccc(N/C(=N/c3ccccc3)NCCCNc3ccnc4cc(Cl)ccc34)cc2)cc1`, for which the MIC in the series with Klebsiella pneumoniae came to 12.5 µg/mL (≈ 22.6 µM); in the series with Sporothrix schenckii, 12.5 µg/mL (≈ 22.6 µM); with Escherichia coli, 6.25 µg/mL (≈ 11.3 µM); with Candida albicans it was 25 µg/mL (≈ 45.3 µM); in the series on Candida parapsilosis it was 12.5 µg/mL (≈ 22.6 µM); against Cryptococcus neoformans it was 25 µg/mL (≈ 45.3 µM). Moreover, the MIC was 6.25 µg/mL (≈ 11.3 µM) in the series with Staphylococcus aureus, greater than 50 µg/mL against Pseudomonas aeruginosa, 12.5 µg/mL (≈ 22.6 µM) in [4] and 25 µg/mL (≈ 45.3 µM) with Aspergillus fumigatus. In addition, the IC50 in the series with Plasmodium falciparum [1] was determined as 36.6 nM; in the series on Plasmodium falciparum [2], 680 nM. The selectivity ratio in series [3] is 97.8.

`COC(=O)/C(C)=C/c1ccc(Oc2ccc(N/C(=N/c3ccc(Cl)cc3)NCCCCNc3ccnc4cc(Cl)ccc34)cc2)cc1`: the MIC came out at 50 µg/mL (≈ 74.8 µM) with Klebsiella pneumoniae; 6.25 µg/mL (≈ 9.35 µM) against Sporothrix schenckii; 25 µg/mL (≈ 37.4 µM) with Escherichia coli; 6.25 µg/mL (≈ 9.35 µM) in the series with Candida albicans; 12.5 µg/mL (≈ 18.7 µM) against Candida parapsilosis; 6.25 µg/mL (≈ 9.35 µM) with Cryptococcus neoformans. Also, the MIC is 12.5 µg/mL (≈ 18.7 µM) in the series on Staphylococcus aureus, greater than 50 µg/mL against Pseudomonas aeruginosa, 12.5 µg/mL (≈ 18.7 µM) in series [4] and 50 µg/mL (≈ 74.8 µM) against Aspergillus fumigatus. Moreover, the 50% inhibitory concentration (IC50) with Plasmodium falciparum [1] was found to be 56.4 nM; with Plasmodium falciparum [2], 716 nM. The selectivity ratio in [3] amounted to 145.

`Clc1ccc(Cl)c(Oc2ccc(N/C(=N/c3ccccc3)NCCCNc3ccnc4cc(Cl)ccc34)cc2)c1`: the MIC against Klebsiella pneumoniae was 25 µg/mL (≈ 42.3 µM); against Sporothrix schenckii it was 3.12 µg/mL (≈ 5.28 µM); in the series on Escherichia coli, 3.12 µg/mL (≈ 5.28 µM); against Candida albicans, 12.5 µg/mL (≈ 21.2 µM); with Candida parapsilosis, 6.25 µg/mL (≈ 10.6 µM); in the series with Cryptococcus neoformans, 6.25 µg/mL (≈ 10.6 µM). Besides, the MIC in the series on Staphylococcus aureus was 12.5 µg/mL (≈ 21.2 µM); with Pseudomonas aeruginosa it was greater than 50 µg/mL; in series [4], 6.25 µg/mL (≈ 10.6 µM); in the series with Aspergillus fumigatus, 6.25 µg/mL (≈ 10.6 µM). Moreover, the 50% inhibitory concentration (IC50) with Plasmodium falciparum [1] was 23.1 nM; in the series with Plasmodium falciparum [2], greater than 846 nM. Further, the selectivity ratio in series [3] is 164.

For `COC(=O)/C(C)=C/c1ccc(Oc2ccc(N/C(=N/c3cccc(Cl)c3)NCCCCNc3ccnc4cc(Cl)ccc34)cc2)cc1`, the MIC in the series on Klebsiella pneumoniae was 50 µg/mL (≈ 74.8 µM); in the series on Sporothrix schenckii, 50 µg/mL (≈ 74.8 µM); against Escherichia coli, 12.5 µg/mL (≈ 18.7 µM); in the series on Candida albicans it was greater than 50 µg/mL; in the series on Candida parapsilosis, greater than 50 µg/mL; against Cryptococcus neoformans, greater than 50 µg/mL. Besides, the MIC with Staphylococcus aureus was 3.12 µg/mL (≈ 4.67 µM); in the series on Pseudomonas aeruginosa it was greater than 50 µg/mL; in series [4] it was 50 µg/mL (≈ 74.8 µM); against Aspergillus fumigatus, greater than 50 µg/mL. The IC50 in the series with Plasmodium falciparum [1] was 51.9 nM; in the series with Plasmodium falciparum [2], 66.8 nM. Also, the selectivity ratio in [3] was determined as 47.9.

On to `Clc1ccc(/N=C(\NCCNc2ccnc3cc(Cl)ccc23)Nc2ccc(Oc3cc(Cl)ccc3Cl)cc2)cc1`, for which the MIC in the series on Klebsiella pneumoniae was greater than 50 µg/mL; against Sporothrix schenckii, 3.12 µg/mL (≈ 5.1 µM); with Escherichia coli, 6.25 µg/mL (≈ 10.2 µM); with Candida albicans it was 6.25 µg/mL (≈ 10.2 µM); against Candida parapsilosis, 12.5 µg/mL (≈ 20.4 µM); against Cryptococcus neoformans, 6.25 µg/mL (≈ 10.2 µM). For the same compound, the MIC was 25 µg/mL (≈ 40.9 µM) with Staphylococcus aureus, greater than 50 µg/mL against Pseudomonas aeruginosa, 6.25 µg/mL (≈ 10.2 µM) in series [4] and 6.25 µg/mL (≈ 10.2 µM) in the series with Aspergillus fumigatus. For the same compound, the IC50 in the series on Plasmodium falciparum [1] came out at 44 nM; in the series on Plasmodium falciparum [2], 54.1 nM. The selectivity ratio in [3] was found to be 189.

With `COC(=O)/C(C)=C/c1ccc(Oc2ccccc2N/C(=N/c2ccccc2)NCCCCNc2ccnc3cc(Cl)ccc23)cc1`, the MIC against Klebsiella pneumoniae, against Sporothrix schenckii, in the series on Escherichia coli, with Candida albicans, in the series on Candida parapsilosis and in the series with Cryptococcus neoformans was greater than 50 µg/mL each time. Also, the MIC (with Staphylococcus aureus; with Pseudomonas aeruginosa; in [4]; against Aspergillus fumigatus) was greater than 50 µg/mL throughout. The results for the half-inhibitory concentration (IC50) in the series with Plasmodium falciparum [1] and with Plasmodium falciparum [2] were 287 nM and 141 nM, respectively. Further, the selectivity ratio in series [3] was found to be 78.
